Laboratory results taken from patent publication US7858663B1, “Physical and chemical properties of thyroid hormone organic acid addition salts” (Pisgah Laboratories, Inc., priority 2007, dated 2010).

Legend:
Type in all cases: physicochemical
[1] = Hygroscopicity; conditions: compared with sodium or alkali metal salts of the thyroid hormones
[2] = Water solubility
[3] = Forced degradation as suspension in USP water at about 60° C., HPLC
Procedure: (§1) Chromatographic analyses were conducted on a Waters Breeze system equipped with a Waters 1525 Binary HPLC pump, 717plus Autosampler, 2487 Dual I Absorbance Detector and column heater employing a Zorbax Extend-C-18 Column (4.6×250 mm; 5 micron, 80 A). Separation occurred using a linear gradient elution according to the following table wherein eluant A consisted of 0.1% TFA in water and eluant B consisted of 0.1% TFA in acetonitrile.
(§2) Injection samples were prepared in water/1N NaOH/acetonitrile diluent (59:1:40) with analyte peaks detected at 230 nm. Analyte peaks associated with the pamoate salts were assayed against standard solutions prepared from liothyronine and levothryroxine.
(§3) The HPLC methodology was applied to freshly prepared samples of T3-pamoate and T4 pamoate and the resulting chromatograms compared with chromatograms of the materials after a four-year real-time storage under ambient laboratory conditions. Further, the pamoate salts were evaluated under forced degradation conditions to evaluate the effects of heat and moisture on the salts' chemical and thermal stability. Blank injections of the sample diluent were obtained at each time interval to determine if minor response differences observed were attributable to the diluent and the chromatographic system (eluant) or to real impurities within either liothyronine pamoate or levothyroxine pamoate.
To accelerate the potential degradation of levothyroxine pamoate and liothyronine pamoate, samples of each were individually placed in at least an 100 fold excess by weight USP water to form a suspension. The mixture was not degassed and heating was initiated to about 60° C. Multiple samples at each time point were obtained and analyzed from the mixture to assure a representative sample was obtained. FIG. 16 is an HPLC chromatogram of levothyroxine pamoate after subjection to this forced degradation condition for about 98 hours and is indicative of the unexpected stability associated with the organic acid addition salt. […]

[4] = Real-time storage stability under ambient laboratory conditions, HPLC comparison with freshly prepared material
Procedure: as §1, §2
as §3, with “pamoate. […]” for “pamoate.”

N[C@@H](Cc1cc(I)c(Oc2cc(I)c(O)c(I)c2)c(I)c1)C(=O)O [levothyroxine sodium, reference compound]
Hygroscopicity [1]: sufficient hygroscopic characteristics
Water solubility [2]: water-soluble

levothyroxine pamoate
HPLC chromatogram after forced degradation compared with freshly prepared material ([3]; suspension in at least 100 fold excess USP water, not degassed, about 60° C., about 98 hours): essentially identical
HPLC chromatogram after extended storage compared with freshly prepared material ([4]; about four years, ambient laboratory conditions 18-25° C., amber glass jars, detection 230 nm): essentially identical
Water solubility [2]: insoluble

N[C@@H](Cc1cc(I)c(Oc2ccc(O)c(I)c2)c(I)c1)C(=O)O.N[C@@H](Cc1cc(I)c(Oc2ccc(O)c(I)c2)c(I)c1)C(=O)O.O=C(O)c1cc2ccccc2c(Cc2c(O)c(C(=O)O)cc3ccccc23)c1O [liothyronine pamoate]
Decomposition under forced degradation (late eluting peak, retention time about 25-26 minutes) ([3]; aqueous environment at 60° C. for 148 hours): exhibited some decomposition
Amount of degradation impurity at retention time 25-26 minutes ([3]; forced degradation, aqueous environment at 60° C. for 148 hours): significant
Amount of degradation impurity at retention time 25-26 minutes ([4]; extended storage, about four years at ambient laboratory conditions): only a minor amount of the impurity
